Results reported in PubChem BioAssay (NCI).
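Five compound concentrations were applied to cells in 96-well plates for 48 hours; endpoints were derived by simple linear interpolation of the resulting dose-response curve. GI50: concentration for 50% inhibition of growth. TGI denotes the concentration required for complete inhibition of growth.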

Legend:
Test in all cases: NCI-60 cell line screen, 48 h
[1] = test system: COLO 205 colon
[2] = test system: DU-145 prostate
[3] = test system: HCT-15 colon
[4] = test system: HL-60(TB) leukemia
[5] = test system: MALME-3M melanoma
[6] = test system: SF-295 CNS
[7] = test system: TK-10 renal
[8] = test system: PC-3 prostate

## O=C1C=C(N2CC2)c2ccccc2C1=O
[1]
  GI50: 2.01 µM
  TGI: 3.49 µM
[2]
  GI50: 1.34 µM
  TGI: 2.66 µM
[3]
  GI50: 1.85 µM
  TGI: 3.79 µM
[4]
  GI50: 2.68 µM
  TGI: 6.54 µM
[5]
  GI50: 1.93 µM
  TGI: 3.39 µM
[6]
  GI50: 1.63 µM
  TGI: 3.12 µM
[7]
  GI50: 2.15 µM
  TGI: 3.64 µM

## COc1ccc2nc(-c3ccccc3)cc(Nc3ccc(/C(C)=N/O)cc3)c2c1
[1]
  GI50: 4.91 µM
  TGI: > 100 µM
[2]
  GI50: 2.8 µM
  TGI: > 23 µM
[3]
  GI50: 13.9 µM
  TGI: > 63.9 µM
[4]
  GI50: 2.88 µM
  TGI: > 100 µM
[5]
  GI50: 2.8 µM
  TGI: 9.92 µM
[8]
  GI50: 6.36 µM
  TGI: > 64.8 µM
[6]
  GI50: 2.21 µM
  TGI: 5.23 µM
[7]
  GI50: 1.63 µM
  TGI: 3.42 µM

## N/C(=N\OC(=O)NC(Cl)=C(Cl)Cl)c1cc(C(F)(F)F)cc(C(F)(F)F)c1
[1]
  TGI: 33.4 µM
[2]
  TGI: 27 µM
[3]
  TGI: 48.4 µM
[4]
  TGI: 30 µM
[5]
  TGI: 48.6 µM
[8]
  TGI: 38.9 µM
[6]
  TGI: 34.8 µM
[7]
  TGI: 30.4 µM

## COc1ccc(/C=C/c2nc(N3CCOCC3)c3cc(F)c(F)cc3n2)cc1OC
[1]
  GI50: 3.47 µM
  TGI: 20.7 µM
[2]
  GI50: 8.79 µM
  TGI: > 100 µM
[3]
  GI50: 3 µM
  TGI: > 100 µM
[4]
  GI50: 4 µM
  TGI: > 100 µM
[8]
  GI50: 2.66 µM
  TGI: 33.9 µM
[6]
  GI50: 3.9 µM
  TGI: > 100 µM
[7]
  GI50: 4.84 µM
  TGI: > 100 µM

## COc1ccc(-c2nnc3n(C)c(=O)c4ccccc4n23)cc1O
[1]
  GI50: 3.36 µM
  TGI: 21.1 µM
[2]
  GI50: 2.22 µM
  TGI: > 100 µM
[3]
  GI50: 0.153 µM
  TGI: > 100 µM
[4]
  GI50: 0.13 µM
  TGI: 1.32 µM
[8]
  GI50: 0.611 µM
  TGI: > 100 µM
[6]
  GI50: 1.05 µM
  TGI: 13 µM
[7]
  GI50: 6.8 µM
  TGI: > 100 µM

## COc1ccc(N2CCN(CC(=O)N3CCN(c4nnc(-c5ccccc5)c(-c5ccccc5)n4)CC3)CC2)cc1
[1]
  GI50: 3.25 µM
  TGI: 13.7 µM
[2]
  GI50: 16.2 µM
  TGI: > 100 µM
[3]
  GI50: 6.07 µM
  TGI: > 100 µM
[4]
  GI50: 6.03 µM
  TGI: > 43.2 µM
[5]
  GI50: 6.82 µM
  TGI: > 100 µM
[8]
  GI50: 5.5 µM
  TGI: > 100 µM
[6]
  GI50: 4.15 µM
  TGI: > 100 µM
[7]
  GI50: 9.39 µM
  TGI: > 100 µM

## COc1cc2c(cc1OCCCCCCNC(=O)c1cc3ccccc3[nH]1)N=CC1CCCN1C2=O (stereo not given)
[1]
  GI50: 45.4 µM
  TGI: > 100 µM
[2]
  GI50: 21.6 µM
  TGI: 72.1 µM
[3]
  GI50: 32.1 µM
  TGI: > 100 µM
[4]
  GI50: 41.2 µM
  TGI: > 100 µM
[5]
  GI50: 20.5 µM
  TGI: > 100 µM
[8]
  GI50: 36 µM
  TGI: > 100 µM
[6]
  GI50: 31.1 µM
  TGI: > 100 µM
[7]
  GI50: 20.7 µM
  TGI: 93.6 µM

## COC(=O)C1CC2(c3ccc(C)cc3)C(c3ccc(C)cc3)=C(c3ccc(C)cc3)C1(c1ccc(C)cc1)S2=O (stereo not given)
[1]
  GI50: > 100 µM
  TGI: > 100 µM
[2]
  GI50: > 100 µM
  TGI: > 100 µM
[3]
  GI50: > 100 µM
  TGI: > 100 µM
[5]
  GI50: > 100 µM
  TGI: > 100 µM
[8]
  GI50: > 100 µM
  TGI: > 100 µM
[6]
  GI50: 57.6 µM
  TGI: > 100 µM
[7]
  GI50: > 100 µM
  TGI: > 100 µM

## c1ccc(-c2n(Cc3ccc4ccccc4n3)c3ccccc3[n+]2Cc2ccc3ccccc3n2)cc1
[1]
  GI50: 0.181 µM
  TGI: 0.415 µM
[2]
  GI50: 0.417 µM
  TGI: 5.55 µM
[3]
  GI50: 2.23 µM
  TGI: 5.99 µM
[4]
  GI50: 0.151 µM
  TGI: 0.62 µM
[5]
  GI50: 0.336 µM
  TGI: 1.65 µM
[8]
  GI50: 0.23 µM
  TGI: 1.35 µM
[6]
  GI50: 0.358 µM
  TGI: 1.39 µM
[7]
  GI50: 0.426 µM
  TGI: 1.91 µM

## Cc1cc(C)cc(Nc2nccc(-c3c(-c4ccc(F)cc4)ncn3C3CCNCC3)n2)c1
[1]
  GI50: 1.41 µM
  TGI: 3.21 µM
[2]
  GI50: 1.46 µM
  TGI: 3.14 µM
[3]
  GI50: 1.15 µM
  TGI: 2.85 µM
[4]
  GI50: 1.6 µM
  TGI: 3.68 µM
[5]
  GI50: 1.61 µM
  TGI: 3.39 µM
[8]
  GI50: 1.56 µM
  TGI: 3.01 µM
[6]
  GI50: 1.85 µM
  TGI: 3.58 µM
[7]
  GI50: 0.717 µM
  TGI: 2.95 µM

## COc1cc(C(=O)/C=C/c2c(-c3ccc(F)cc3)nc3sccn23)cc(OC)c1OC
[1]
  GI50: 2.27 µM
  TGI: 6.98 µM
[2]
  GI50: 2.52 µM
  TGI: 6.64 µM
[3]
  GI50: 2.87 µM
  TGI: 13.1 µM
[4]
  GI50: 1.61 µM
  TGI: 4.19 µM
[5]
  GI50: 3.96 µM
  TGI: > 33.9 µM
[8]
  GI50: 3.57 µM
  TGI: > 46.2 µM
[6]
  GI50: 2.37 µM
  TGI: 10.6 µM
[7]
  GI50: 3.6 µM
  TGI: > 24.6 µM

## COc1ccc(C(=O)Nc2ncc(Cc3ccc(F)cc3)s2)cc1
[1]
  GI50: 0.0584 µM
[2]
  GI50: 0.138 µM
  TGI: > 100 µM
[3]
  GI50: 0.0429 µM
  TGI: > 100 µM
[4]
  GI50: 0.0315 µM
  TGI: 0.169 µM
[5]
  GI50: 0.0855 µM
  TGI: > 62.8 µM
[8]
  GI50: 0.0513 µM
  TGI: > 100 µM
[6]
  GI50: 0.0614 µM
  TGI: 2.03 µM
[7]
  GI50: 4.31 µM
  TGI: 98.3 µM

## O=C(Cc1ccc(/C=C/C(=O)c2ncc[nH]2)cc1)Nc1ccc(Br)cc1
[1]
  GI50: 2.57 µM
  TGI: 5.74 µM
[2]
  GI50: 1.1 µM
  TGI: 4.89 µM
[3]
  GI50: 0.787 µM
  TGI: 8.83 µM
[4]
  GI50: 2.78 µM
  TGI: 13.9 µM
[5]
  GI50: 3.12 µM
  TGI: 7.69 µM
[8]
  GI50: 2.51 µM
  TGI: 10.2 µM
[6]
  GI50: 2.09 µM
  TGI: 6.19 µM
[7]
  GI50: 4.31 µM
  TGI: 12.6 µM

## N#Cc1cc2cc3c4c(c2oc1=O)CCCN4CCC3
[1]
  TGI: > 100 µM
[2]
  TGI: > 100 µM
[3]
  TGI: > 100 µM
[4]
  TGI: > 100 µM
[8]
  TGI: > 100 µM
[6]
  TGI: > 100 µM
[7]
  TGI: > 100 µM

## CC(=O)NNC(=O)c1nn(-c2ccc(Cl)cc2)cc1OC(C)=O
[1]
  GI50: 39.1 µM
  TGI: > 100 µM
[2]
  GI50: 18.7 µM
  TGI: > 100 µM
[3]
  GI50: 7.23 µM
  TGI: > 100 µM
[5]
  GI50: 25.7 µM
  TGI: > 91.4 µM
[8]
  GI50: 5.07 µM
  TGI: > 25 µM
[6]
  GI50: 15.9 µM
  TGI: > 100 µM
[7]
  GI50: 15.6 µM
  TGI: > 100 µM

## O=C1C[C@@H](c2ccccc2)NCCCCN(O)CCCN1
[1]
  TGI: > 100 µM
[2]
  TGI: > 100 µM
[3]
  TGI: > 100 µM
[4]
  TGI: > 100 µM
[5]
  TGI: > 100 µM
[8]
  TGI: > 100 µM
[6]
  TGI: > 100 µM
[7]
  TGI: > 100 µM
